# Results reported in patent US7396534B2, “Cosmetic compositions containing Nigrospora sphaerica extracts” (Unilever Home & Personal Care USA, division of Conopco, Inc., priority 2004, dated 2008).
# Assays:
# [1] = tested on: skin from 8-month old pigmented pigs; test: Pig skin organ culture, 14C-thiouracil incorporation (new melanin synthesis); type: cell-based; conditions: 1.4 mg/ml (10 mM), pig skin biopsies, three day incubation
# Method: Organ Culture Method Waste skin from 8-month old pigmented pigs was shaved to remove hairs and washed thoroughly to remove debris and reduce microbial content. The cleaned skin was then dermatomed to approximately 1-mm thickness×75-cm^2 and placed in tissue culture flasks containing Dulbecco's Modified Eagle's Medium (DMEM Cat#1188507) containing penicillin (100-units/ml), streptomycin (100-ug/ml), kanamycin (200-ug/ml), […]-mM), and fungizone (0.5-ug/ml). All flasks were incubated overnight at 37° C. in the presence of 5% carbon dioxide. This allowed the skin to equilibrate for 18 hours prior to the addition of melanin inhibitors. Areas of the skin that had scratches, erythema, or uneven pigmentation were discarded. The following morning, the skin was punched into 4-mm diameter biopsies and transferred to a 96-well tissue culture plate. To each well containing a biopsy, 180-microliters of fresh DMEM containing penicillin (100-units/ml), streptomycin (100-ug/ml), […]-mM), hydrocortisone (100-μg/ml) and 0.4-μCi/ml ^14C-thiouracil (Moravek Biochemicals) was added along with 20-microliters of natural extract. […] Samples were mixed several times to ensure even dispersion, sealed, and assessed for radiolabel incorporation using a Packard TopCount scintillation counter. […]
# [2] = tested on: MelanoDerm tissue equivalent model (MEL-300) containing melanocytes obtained from dark skin individuals; test: MelanoDerm tissue equivalent model, melanin content; type: cell-based, human; conditions: 14 micro-g/ml (100 uM); 14-day period, relative to untreated or vehicle control
# Method: MelanoDerm Tissue Model Method
# A MelanoDerm tissue equivalent model (MEL-300 from Mat Tek, Ashland, Mass.) containing melanocytes obtained from dark skin individuals was utilized to confirm the results obtained in the pig organ culture. MelanoDerms were cultured as per the supplier instructions.
# […] Positive control was included, i.e., kojic acid, which is a known skin lightening agent. During each medium change, a portion of the waste was analyzed for levels of lactate dehydrogenase as an indicator of cellular toxicity and stress. At no time was the level of lactate dehydrogenase above the vehicle control solvents (water or ethanol).
# Determination of melanin content within each MelanoDerm was performed using the assay provided by the manufacturer. Each MelanoDerm was homogenized in 450-microliters of buffer (1% SDS, 0.05-mM EDTA, 10-mM Tris-HCl, pH 6.8) containing 20-microliters of Proteinase K (5 mg/ml) and incubated overnight at 45° C. […] The optical density of the top phase was determined (405-nm) following extraction of the sample with 100-microliters of chloroform:methanol (2:1) and centrifugation (10,000 g) for ten minutes. Optical density readings relative to the untreated or vehicle control (water or ethanol) were then calculated.
smiles,measurement,setting,value
O=c1cc(CO)occ1O [Kojic Acid],% Radiolabel Reduction,[1],56%
same,% Melanin Reduction,[2],9.5%
